{"source": "paper PMC4022148", "about": "(Molecular and biochemical parasitology, 2014)", "biological_target": "T1, E. histolytica LMW-PTP (Entamoeba histolytica, UniProt C4LSE7)", "T1 sequence (C4LSE7 1-157)": "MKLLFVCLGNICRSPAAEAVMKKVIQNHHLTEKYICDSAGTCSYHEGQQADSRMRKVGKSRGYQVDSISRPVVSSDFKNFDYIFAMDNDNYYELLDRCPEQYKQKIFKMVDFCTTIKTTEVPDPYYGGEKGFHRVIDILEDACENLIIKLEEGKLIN", "assay": "colorimetric phosphatase assay, A405", "format": "biochemical", "conditions": "kit assay buffer, 10-200 ng enzyme, 100 ul", "data": [{"smiles": "O=[N+]([O-])c1ccc(OP(=O)(O)O)cc1", "note": "[pNPP]", "values": [{"measurement": "colorimetric phosphatase assay, A405 (SensoLyte pNPP kit)", "value": "The wild-type recombinant LMW-PTP possessed phosphatase activity"}]}]}
